Assay results published in the supplement of paper PMC10307832.

What was measured:
Experiment in all cases: relative viability (nuclei count vs DMSO), 5 days (fraction); higher = more cells survive
HCC-44 = tested on: HCC-44
Outline: (§1)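 Five library-drug doses in √10 steps were combined with a fixed anchor-drug dose, or a single drug was given alone, by pin tool to lung cancer cell lines in 1536-well plates the day after seeding. Nuclei were stained and counted after 5 days. Relative viability is the nuclei count in treated wells over that in vehicle wells, taken as the median of duplicate plates.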

NCI-H2347 = tested on: NCI-H2347
Outline: as §1

NCI-H2126 = tested on: NCI-H2126
Outline: as §1

HARA = tested on: HARA
Outline: as §1

UMC-11 = tested on: UMC-11
Outline: as §1

HCC-15 = tested on: HCC-15
Outline: as §1

NCI-H650 = tested on: NCI-H650
Outline: as §1

NCI-H2023 = tested on: NCI-H2023
Outline: as §1

PC-14 = tested on: PC-14
Outline: as §1

EPLC-272H = tested on: EPLC-272H
Outline: as §1

NCI-H838 = tested on: NCI-H838
Outline: as §1

NCI-H1915 = tested on: NCI-H1915
Outline: as §1

NCI-H1651 = tested on: NCI-H1651
Outline: as §1

SW 1573 = tested on: SW 1573
Outline: as §1

LC-2-ad = tested on: LC-2-ad
Outline: as §1

NCI-H2085 = tested on: NCI-H2085
Outline: as §1

HOP-62 = tested on: HOP-62
Outline: as §1

NCI-H1993 = tested on: NCI-H1993
Outline: as §1

NCI-H1355 = tested on: NCI-H1355
Outline: as §1

COR-L23 = tested on: COR-L23
Outline: as §1

ABC-1 = tested on: ABC-1
Outline: as §1

LU99A = tested on: LU99A
Outline: as §1

NCI-H358 = tested on: NCI-H358
Outline: as §1

Structure (SMILES): CCN(CC)CCCCNc1ncc2cc(-c3cc(OC)cc(OC)c3)c(NC(=O)NC(C)(C)C)nc2n1 + O=C(CCCCCCC(=O)Nc1ccccc1)NO [Vorinostat] (partner 1 µM)
- relative viability (HCC-44; first compound 0.01 µM): 1.11
- relative viability (HCC-44; first compound 0.03162 µM): 1.08
- relative viability (HCC-44; first compound 0.1 µM): 1.16
- relative viability (HCC-44; first compound 0.3162 µM): 1.08
- relative viability (HCC-44; first compound 1 µM): 1.15
- relative viability (NCI-H2347; first compound 0.01 µM): 0.509
- relative viability (NCI-H2347; first compound 0.03162 µM): 0.543
- relative viability (NCI-H2347; first compound 0.1 µM): 0.705
- relative viability (NCI-H2347; first compound 0.3162 µM): 0.588
- relative viability (NCI-H2347; first compound 1 µM): 0.472
- relative viability (NCI-H2126; first compound 0.01 µM): 0.771
- relative viability (NCI-H2126; first compound 0.03162 µM): 0.834
- relative viability (NCI-H2126; first compound 0.1 µM): 0.807
- relative viability (NCI-H2126; first compound 0.3162 µM): 0.834
- relative viability (NCI-H2126; first compound 1 µM): 0.822
- relative viability (HARA; first compound 0.01 µM): 0.406
- relative viability (HARA; first compound 0.03162 µM): 0.483
- relative viability (HARA; first compound 0.1 µM): 0.528
- relative viability (HARA; first compound 0.3162 µM): 0.51
- relative viability (HARA; first compound 1 µM): 0.365
- relative viability (UMC-11; first compound 0.01 µM): 0.4
- relative viability (UMC-11; first compound 0.03162 µM): 0.36
- relative viability (UMC-11; first compound 0.1 µM): 0.361
- relative viability (UMC-11; first compound 0.3162 µM): 0.394
- relative viability (UMC-11; first compound 1 µM): 0.311
- relative viability (HCC-15; first compound 0.01 µM): 0.857
- relative viability (HCC-15; first compound 0.03162 µM): 0.849
- relative viability (HCC-15; first compound 0.1 µM): 0.867
- relative viability (HCC-15; first compound 0.3162 µM): 0.929
- relative viability (HCC-15; first compound 1 µM): 0.836
- relative viability (NCI-H650; first compound 0.01 µM): 0.349
- relative viability (NCI-H650; first compound 0.03162 µM): 0.433
- relative viability (NCI-H650; first compound 0.1 µM): 0.498
- relative viability (NCI-H650; first compound 0.3162 µM): 0.525
- relative viability (NCI-H650; first compound 1 µM): 0.422
- relative viability (NCI-H2023; first compound 0.01 µM): 0.534
- relative viability (NCI-H2023; first compound 0.03162 µM): 0.756
- relative viability (NCI-H2023; first compound 0.1 µM): 0.686
- relative viability (NCI-H2023; first compound 0.3162 µM): 0.6
- relative viability (NCI-H2023; first compound 1 µM): 0.567
- relative viability (PC-14; first compound 0.01 µM): 0.708
- relative viability (PC-14; first compound 0.03162 µM): 0.84
- relative viability (PC-14; first compound 0.1 µM): 0.969
- relative viability (PC-14; first compound 0.3162 µM): 0.881
- relative viability (PC-14; first compound 1 µM): 0.622
- relative viability (EPLC-272H; first compound 0.01 µM): 0.4
- relative viability (EPLC-272H; first compound 0.03162 µM): 0.537
- relative viability (EPLC-272H; first compound 0.1 µM): 0.277
- relative viability (EPLC-272H; first compound 0.3162 µM): 0.493
- relative viability (EPLC-272H; first compound 1 µM): 0.335
- relative viability (NCI-H838; first compound 0.01 µM): 0.669
- relative viability (NCI-H838; first compound 0.03162 µM): 0.732
- relative viability (NCI-H838; first compound 0.1 µM): 0.779
- relative viability (NCI-H838; first compound 0.3162 µM): 0.69
- relative viability (NCI-H838; first compound 1 µM): 0.592
- relative viability (NCI-H1915; first compound 0.01 µM): 0.452
- relative viability (NCI-H1915; first compound 0.03162 µM): 0.531
- relative viability (NCI-H1915; first compound 0.1 µM): 0.537
- relative viability (NCI-H1915; first compound 0.3162 µM): 0.456
- relative viability (NCI-H1915; first compound 1 µM): 0.513
- relative viability (NCI-H1651; first compound 0.01 µM): 0.541
- relative viability (NCI-H1651; first compound 0.03162 µM): 0.626
- relative viability (NCI-H1651; first compound 0.1 µM): 0.582
- relative viability (NCI-H1651; first compound 0.3162 µM): 0.674
- relative viability (NCI-H1651; first compound 1 µM): 0.475
- relative viability (SW 1573; first compound 0.01 µM): 0.79
- relative viability (SW 1573; first compound 0.03162 µM): 0.959
- relative viability (SW 1573; first compound 0.1 µM): 0.952
- relative viability (SW 1573; first compound 0.3162 µM): 0.707
- relative viability (SW 1573; first compound 1 µM): 0.705
- relative viability (LC-2-ad; first compound 0.01 µM): 0.716
- relative viability (LC-2-ad; first compound 0.03162 µM): 0.798
- relative viability (LC-2-ad; first compound 0.1 µM): 0.76
- relative viability (LC-2-ad; first compound 0.3162 µM): 0.739
- relative viability (LC-2-ad; first compound 1 µM): 0.66
- relative viability (NCI-H2085; first compound 0.01 µM): 0.782
- relative viability (NCI-H2085; first compound 0.03162 µM): 0.8
- relative viability (NCI-H2085; first compound 0.1 µM): 0.935
- relative viability (NCI-H2085; first compound 0.3162 µM): 0.858
- relative viability (NCI-H2085; first compound 1 µM): 0.793
- relative viability (HOP-62; first compound 0.01 µM): 0.715
- relative viability (HOP-62; first compound 0.03162 µM): 0.595
- relative viability (HOP-62; first compound 0.1 µM): 0.616
- relative viability (HOP-62; first compound 0.3162 µM): 0.65
- relative viability (HOP-62; first compound 1 µM): 0.663
- relative viability (NCI-H1993; first compound 0.01 µM): 0.776
- relative viability (NCI-H1993; first compound 0.03162 µM): 0.726
- relative viability (NCI-H1993; first compound 0.1 µM): 0.899
- relative viability (NCI-H1993; first compound 0.3162 µM): 0.882
- relative viability (NCI-H1993; first compound 1 µM): 0.695
- relative viability (NCI-H1355; first compound 0.01 µM): 0.647
- relative viability (NCI-H1355; first compound 0.03162 µM): 0.654
- relative viability (NCI-H1355; first compound 0.1 µM): 0.67
- relative viability (NCI-H1355; first compound 0.3162 µM): 0.657
- relative viability (NCI-H1355; first compound 1 µM): 0.616
- relative viability (COR-L23; first compound 0.01 µM): 0.467
- relative viability (COR-L23; first compound 0.03162 µM): 0.495
- relative viability (COR-L23; first compound 0.1 µM): 0.379
- relative viability (COR-L23; first compound 0.3162 µM): 0.593
- relative viability (COR-L23; first compound 1 µM): 0.434
- relative viability (ABC-1; first compound 0.03162 µM): 0.99
- relative viability (ABC-1; first compound 0.1 µM): 1.35
- relative viability (ABC-1; first compound 0.3162 µM): 1.01
- relative viability (ABC-1; first compound 1 µM): 1.09
- relative viability (LU99A; first compound 0.01 µM): 0.528
- relative viability (LU99A; first compound 0.03162 µM): 0.601
- relative viability (LU99A; first compound 0.1 µM): 0.541
- relative viability (LU99A; first compound 0.3162 µM): 0.529
- relative viability (LU99A; first compound 1 µM): 0.423
- relative viability (NCI-H358; first compound 0.01 µM): 0.684
- relative viability (NCI-H358; first compound 0.03162 µM): 0.879
- relative viability (NCI-H358; first compound 0.1 µM): 0.813
- relative viability (NCI-H358; first compound 0.3162 µM): 0.806
- relative viability (NCI-H358; first compound 1 µM): 0.583
